Experimental data as given in patent EP4603105A1, “PHARMACEUTICAL COMPOSITION CONTAINING CYCLIC COMPOUND HAVING SELECTIVE KRAS INHIBITORY EFFECT AGAINST HRAS AND NRAS” (CHUGAI SEIYAKU KABUSHIKI KAISHA, priority 2022, dated 2024).
Where a SMILES comes first, the peptide text is derived from it. Bridges are numbered along the chain shown (N, C = ends). [ ]: non-standard residue; d: D form. hPhe(3-Cl-4-CF3) = N[C@@H](CCc1ccc(C(F)(F)F)c(Cl)c1)C(=O)O; NPrPhe(4-CF3) = CCCN[C@@H](Cc1ccc(C(F)(F)F)cc1)C(=O)O; NMeGly(cPent) = CN[C@H](C(=O)O)C1CCCC1; Pro(4,4-F2) = O=C(O)[C@@H]1CC(F)(F)CN1; NMeD = CN[C@@H](CC(=O)O)C(=O)O; NMeL = CN[C@@H](CC(C)C)C(=O)O; Ac4c = NC1(C(=O)O)CCC1; Sar = CNCC(=O)O

How the values were obtained:
HRAS wild-type protein = HRAS wild-type protein (Homo sapiens, UniProt P01112); assay: Binding to HRAS by surface plasmon resonance (SPR), KD and KD ratio to KRAS
How it was run: (§1)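 GDP-bound biotin-Avi RAS captured at ~100–300 RU, 30°C, pH 7.4 HBS containing 10 µM GDP, 10 mM MgCl2, 1 mM DTT, 0.01% Tween 20 and 4% DMSO. KD by 1:1 fitting.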

[1] = system: human lung cancer strain NCI-H441; type: cell-based
How it was run: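 Readout: […] after the ATP-based reagent. Compound: serial dilutions in dimethyl sulfoxide.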

[2] = molecular target: GDP-bound NRAS wild-type protein (Homo sapiens, UniProt P01111); assay: Binding to NRAS by surface plasmon resonance (SPR), KD and KD ratio to KRAS
How it was run: as §1

[3] = ratio of KD for HRAS wild-type protein to KD for KRAS
[4] = ratio of KD for GDP-bound NRAS wild-type protein to KD for KRAS

Chain of HRAS wild-type protein (P01112 whole entry): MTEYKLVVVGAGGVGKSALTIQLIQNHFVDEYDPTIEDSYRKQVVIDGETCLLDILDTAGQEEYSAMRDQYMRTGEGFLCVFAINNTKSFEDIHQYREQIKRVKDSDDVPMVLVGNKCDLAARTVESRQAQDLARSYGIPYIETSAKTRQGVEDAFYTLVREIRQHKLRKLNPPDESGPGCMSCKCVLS
Chain of GDP-bound NRAS wild-type protein (P01111 whole entry): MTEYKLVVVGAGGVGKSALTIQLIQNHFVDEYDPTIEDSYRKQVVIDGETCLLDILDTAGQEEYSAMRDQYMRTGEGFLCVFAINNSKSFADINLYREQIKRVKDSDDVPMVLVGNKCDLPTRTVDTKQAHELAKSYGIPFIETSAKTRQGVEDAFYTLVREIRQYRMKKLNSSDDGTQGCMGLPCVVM

Row | SMILES | IC50 [1] | HRAS /KRAS (HRAS wild-type protein; [3]) | NRAS /KRAS [2, 4] | HRAS /KRAS (HRAS wild-type protein; ratio of the KD value with respect to HRAS wild-type protein to the KD value with respect to KRAS) | NRAS /KRAS ([2]; ratio of the KD value with respect to GDP-bound NRAS wild-type protein to the KD value with respect to KRAS)
1 | CCO[C@@H]1C[C@H]2C(=O)NC3(CCC3)C(=O)N(C)[C@@H](C3CCCC3)C(=O)N(C)[C@H](C(=O)N(C)C)CC(=O)N(C)[C@@H](Cc3cccc(F)c3)C(=O)N[C@@H]([C@@H](C)CC)C(=O)N(C)CC(=O)N(C)[C@H]3C/C=C\CCN(C3=O)[C@@H](Cc3ccc(C(F)(F)F)cc3)C(=O)N(C)CC(=O)N[C@@H](CCc3cc(F)c(C(F)(F)F)c(F)c3)C(=O)N2C1 [PP1126] | 7.1 nM | A (a compound having 10 or more and less than 20 is denoted as A) | A (a compound having 10 or more and less than 20 is denoted as A) |  | 
2 | CCO[C@@H]1C[C@H]2C(=O)NC3(CCC3)C(=O)N(C)[C@@H](C3CCCC3)C(=O)N(C)[C@H](C(=O)N3CCCCC3)CC(=O)N(C)[C@H]3CCC/C=C/c4ccc(cc4)C[C@@H](C(=O)N(C)CC(=O)N[C@@H](CCc4cc(F)c(C(F)(F)F)c(F)c4)C(=O)N2C1)N1CC/C=C\C[C@@H](C1=O)N(C)C(=O)CN(C1CC1)C(=O)[C@H]([C@@H](C)CC)NC3=O [PP2954] | 16.5 nM | A (a compound having 10 or more and less than 20 is denoted as A) | A (a compound having 10 or more and less than 20 is denoted as A) |  | 
3 | CCO[C@@H]1C[C@H]2C(=O)NC3(CCC3)C(=O)N(C)[C@@H](C(C)C)C(=O)N(C)[C@H](C(=O)N(C)C)CC(=O)N(C)[C@@H](CC)C(=O)N[C@@H]([C@@H](C)CC)C(=O)N(C)CC(=O)N(C)[C@H]3C/C=C\CCN(C3=O)[C@@H](Cc3ccc(C(F)(F)F)cc3)C(=O)N(C)CC(=O)N[C@@H](CCc3cc(F)c(C(F)(F)F)c(F)c3)C(=O)N2C1 [PP1088] | 195 nM | A (a compound having 10 or more and less than 20 is denoted as A) | A (a compound having 10 or more and less than 20 is denoted as A) |  | 
4 | CCCN1C(=O)CN(C)C(=O)CNC(=O)[C@H]([C@@H](C)CC)NC(=O)[C@H](CC(C)C)N(C)C(=O)C[C@@H](C(=O)N(C)C)N(C)C(=O)[C@H](C2CCCC2)N(C)C(=O)C2(CCC2)NC(=O)[C@@H]2CC(F)(F)CN2C(=O)[C@H](CCc2ccc(C(F)(F)F)c(Cl)c2)NC(=O)CN(C)C(=O)[C@@H]1Cc1ccc(C(F)(F)F)cc1 [PP0420] ([NMeL]IG[Sar][NPrPhe(4-CF3)][Sar][hPhe(3-Cl-4-CF3)][Pro(4,4-F2)][Ac4c][NMeGly(cPent)][NMeD]-NMe2; lactam N-11) | 1.2 nM |  |  | C (A compound having a KD ratio of 0.1 or more and less than 3 is denoted as C) | B (a compound having 3 or more and less than 10 is denoted as B)

The next lines start with results.

Row | IC50 [1] | SMILES | HRAS /KRAS (HRAS wild-type protein; [3]) | NRAS /KRAS [2, 4] | HRAS /KRAS (HRAS wild-type protein; ratio of the KD value with respect to HRAS wild-type protein to the KD value with respect to KRAS) | NRAS /KRAS ([2]; ratio of the KD value with respect to GDP-bound NRAS wild-type protein to the KD value with respect to KRAS)
5 | 3.7 nM | CCO[C@@H]1C[C@H]2C(=O)NC3(CC(F)(F)C3)C(=O)N(C)[C@@H](C3CCCC3)C(=O)N(C)[C@H](C(=O)N3CCOCC3)CC(=O)N(C)[C@@H](CC(C)C)C(=O)N[C@@H]([C@@H](C)CC)C(=O)N(C)CC(=O)N(C)[C@H]3C[C@H]4C[C@H]4CN(C3=O)[C@@H](Cc3ccc(C(F)(F)F)cc3)C(=O)N(C)CC(=O)N[C@@H](CCc3cc(F)c(C(F)(F)F)c(F)c3)C(=O)N2C1 [PP0831] | C (A compound having a KD ratio of 0.1 or more and less than 3 is denoted as C) | C (A compound having a KD ratio of 0.1 or more and less than 3 is denoted as C) |  | 
6 | 50.5 nM | CCC[C@H]1C(=O)N[C@@H]([C@@H](C)CC)C(=O)N(C)CC(=O)N(C)[C@H]2C/C=C\CCN(C2=O)[C@@H](Cc2ccc(C(F)(F)F)cc2)C(=O)N(C)CC(=O)N[C@@H](CCc2ccc(C(F)(F)F)c(OC)c2)C(=O)N2CCOC[C@H]2C(=O)NC2(CC(C)(C)C2)C(=O)N(C)[C@@H](C(CC)CC)C(=O)N(C)[C@H](C(=O)N(C)C)CC(=O)N1C [PP2935] | A (a compound having 10 or more and less than 20 is denoted as A) | A (a compound having 10 or more and less than 20 is denoted as A) |  | 
7 | 26.5 nM | CCO[C@@H]1C[C@H]2C(=O)NC3(CCC3)C(=O)N(C)[C@@H](C3CCCC3)C(=O)N(C)[C@H](C(=O)N3CCOCC3)CC(=O)N(C)[C@@H](CC(C)C)C(=O)N[C@@H]([C@@H](C)CC)C(=O)N(C)CC(=O)N(C)[C@H]3C/C=C\CCN(C3=O)[C@@H](Cc3ccc(C(F)(F)F)cc3)C(=O)N(C)CC(=O)N[C@@H](CCc3ccc(C(F)(F)F)c(Cl)c3)C(=O)N2C1 [PP0825] | A (a compound having 10 or more and less than 20 is denoted as A) | A (a compound having 10 or more and less than 20 is denoted as A) |  | 
